Nine compounds from patent US7005430B2, “Fused purine derivatives” (Kyowa Hakko Kogyo Co., Ltd., priority 1999, dated 2006) can be followed below.

For one series, the system named is dd mice. Description: Acute toxicity test (minimum lethal dose). The series is classed as in vivo. The conditions noted are these: po, mortality rate after seven days. On the procedure:
A test compound was orally administered to dd mice [male, body weight: 20±1 g (n=3)]. Mortality rate after seven days was measured to determine minimum lethal dose (MLD).

In a further series the test system is MIN6 cell. Kind of series: Insulin secretion promoting activity for cultured β cells (MIN6). The series is classed as cell-based. On the procedure: Culture of the MIN6 cells above and insulin secretion test utilizing the MIN6 cells were performed according to the methods described in Diabetologia, vol. 36, pp. 1139–1145, 1993. The effect of a compound on the insulin secretion in the presence of 14.5 mmol/L glucose was determined by measuring insulin amounts in cell culture supernatants collected as follows. MIN6 cells cultured on a 24-well plate were washed twice by using 1 mL of Buffer A (119 mmol/L sodium chloride, 4.74 mmol/L potassium chloride, 2.54 mmol/L calcium chloride, 1.19 mmol/L magnesium sulfate, 1.19 mmol/L potassium dihydrogenphosphate, 10 mmol/L 2-[4-(2-hydroxyethyl)-1-piperazinyl]ethanesulfonic acid, 0.1% bovine serum albumin, pH 7.3) containing 2 mmol/L glucose, and then were incubated in 1 mL of Buffer A containing 2 mmol/L glucose at 37° C. for 45 minutes. After the incubation, the culture supernatant was changed to Buffer A (0.9 mL) containing a test compound at various concentrations and 2 mmol/L glucose, and the cells were further incubated at 37° C. for 15 minutes. The MIN6 cells were stimulated with glucose by the addition of Buffer A (0.1 mL) containing 127 mmol/L glucose to the culture (final glucose concentration: 14.5 mmol/L). After the stimulation, the cells were further incubated at 37° C. for 45 minutes, and then the culture supernatant was collected.
Separately, the effect of a compound on the insulin secretion in the presence of 5 mmol/L glucose was determined by measuring insulin amounts in cell culture supernatants collected as follows. MIN6 cells cultured on a 24-well plate were washed twice by using 1 mL of Buffer A containing 5 mmol/L glucose, and then the culture supernatant was changed to Buffer A (0.9 mL) containing a test compound at various concentrations and 5 mmol/L glucose. Then, the cells were incubated at 37° C. for 45 minutes (final glucose concentration: 5 mmol/L), and the culture supernatant was collected.
After the culture supernatant was diluted with a phosphate buffer containing 1% bovine serum albumin, 0.1% Tween 20, 0.12% disodium ethylenediaminetetraacetate (EDTA) and 0.1% sodium azide, antibody-reactive insulin secreted in the culture supernatant was quantified by enzyme immunoassay or radio immunoassay. The insulin level was indicated as the amount of human insulin (ng/mL). The results are indicated as averages (avg) for 3 to 4 samples with standard erroe values (se).

The next series has as its system Wistar male rats. Description: Hyperglycemia suppressing action after glucose loading in normal rats. The conditions noted are these: 14 mg/kg po. The series is classed as in vivo. As for the experimental part:
Wistar male rats (body weight: about 280 g) were used for the experiment after starvation for 24 hours. A test compound was orally administered to the rats 15 minutes before oral administration of glucose (2 g/kg). Blood was collected from a tail vein before the administration of the test compound and 30, 60, 120 and 180 minutes after the glucose loading, and blood glucose level was measured by using a simplified blood sugar level measuring apparatus.

Where [1] appears, read: in the presence of 5 mmol/L of glucose, drug concentration 10 (mmol/L [sic]), None = 51.2.
[2] abbreviates: in the presence of 14.5 mmol/L of glucose, drug concentration 1.0 μmol/L, None = 148.4.

For the compound `CCCN1C(=O)N2C[C@@H](Cc3ccncc3)N=C2c2[nH]c(C3CCCC3)nc21` [Compound 2, (R)-2-Cyclopentyl-7,8-dihydro-8-(4-picolyl)-4-(n-propyl)-1H-imidazo[2,1-i]purin-5(4H)-one D-tartrate], the “minimum lethal dose (MLD)” value in the series with dd mice is recorded as “not less than 500 mg/kg”. For the same compound, the “Insulin secretion amount (ng/ml) avg” value in the series with MIN6 cell (setting [1]) was determined as 86.3 ng/mL; in the series on MIN6 cell (setting [2]), 203.6 ng/mL. For the same compound, the “Plasma Glucose Concentration” value in the series with Wistar male rats (30 minutes after glucose loading (2 g/kg), Control 169 ± 7.2) was found to be 144 ± 6.6 mg/dL; with Wistar male rats (60 minutes after glucose loading (2 g/kg), Control 167 ± 8.0), 156 ± 5.7 mg/dL; in the series on Wistar male rats (120 minutes after glucose loading (2 g/kg), Control 93 ± 4.5), 90 ± 5.7 mg/dL; with Wistar male rats (180 minutes after glucose loading (2 g/kg), Control 83 ± 3.7), 82 ± 4.2 mg/dL; in the series with Wistar male rats (time 0 (before administration of the test compound), Control 82 ± 3.7) it was 91 ± 2.1 mg/dL.

As for `CCCc1nc2c([nH]1)C1=NC(Cc3ccncc3)CN1C(=O)N2CCC` (centres unmarked) [Compound 8, 7,8-Dihydro-8-(4-picolyl)-2,4-dipropyl-1H-imidazo[2,1-i]purin-5(4H)-one], the melting point was in the range of 270 to 274 °C.

Compound `CCCN1C(=O)N2CC(Cc3ccncc3)N=C2c2[nH]c(C(C)(C)C)nc21` (centres unmarked) [Compound 11, 2-(tert-Butyl)-7,8-dihydro-8-(4-picolyl)-4-(n-propyl)-1H-imidazo[2,1-i]purin-5(4H)-one] had a melting point of 293 to 295 °C.

`CCCN1C(=O)N2C[C@@H](Cc3ccccc3)N=C2c2c1nc(Br)n2Cc1ccccc1` [Compound 35, (R)-1,8-Dibenzyl-2-bromo-7,8-dihydro-4-(n-propyl)-1H-imidazo[2,1-i]purin-5(4H)-one] displayed a melting point of 200 to 206 °C.

For the compound `CCCN1C(=O)N2C[C@@H](Cc3ccccc3)N=C2c2c1nc(SC)n2COC` [Compound 36, (R)-8-Benzyl-7,8-dihydro-1-methoxymethyl-2-methylthio-4-(n-propyl)-1H-imidazo[2,1-i]purin-5(4H)-one], the melting point is 110 to 112 °C.

Turning to `CCCN1C(=O)N2C[C@@H](Cc3ccccc3)N=C2c2c1nc(C=O)n2Cc1ccccc1` [Compound 41, (R)-1,8-Dibenzyl-2-formyl-7,8-dihydro-4-(n-propyl)-1H-imidazo[2,1-i]purin-5(4H)-one], the melting point fell in the range of 184 to 185 °C.

`CCCN1C(=O)N2C[C@@H](Cc3ccccc3)N=C2c2c1nc(CCl)n2Cc1ccccc1` [Compound 42, (R)-1,8-Dibenzyl-2-chloromethyl-7,8-dihydro-4-(n-propyl)-1H-imidazo[2,1-i]purin-5(4H)-one] yielded a melting point of 112 to 113 °C.

In turn, `CCOC1=Nc2nc(C(C)(C)C)[nH]c2C2=N[C@H](Cc3ccccc3)CN12` [Compound 70, (R)-8-Benzyl-2-(tert-butyl)-5-ethoxy-7,8-dihydro-1H-imidazo[2,1-i]purine] showed a melting point of 220 to 222 °C. The “Insulin secretion amount (ng/ml) avg” value with MIN6 cell (setting [1]) was 57.0 ng/mL. Also, the “Insulin secretion amount (ng/ml) avg” value with MIN6 cell (setting [2]) is 174.9 ng/mL.

The compound `CSC1=Nc2nc(C(C)(C)C)[nH]c2C2=N[C@H](Cc3ccccc3)CN12` [Compound 73, (R)-8-Benzyl-2-(tert-butyl)-7,8-dihydro-5-methylthio-1H-imidazo[2,1-i]purine] showed a melting point of 171 to 174 °C. Also, the “Insulin secretion amount (ng/ml) avg” value in the series with MIN6 cell (setting [1]) was 63.3 ng/mL. Further, the “Insulin secretion amount (ng/ml) avg” value in the series with MIN6 cell (setting [2]) was determined as 176.6 ng/mL.
